The source of these data is paper PMC10180054, “Design, Synthesis and Biological Evaluation of Novel Pleuromutilin Derivatives Containing 6-Chloro-1-R-1H-pyrazolo[3,4-d]pyrimidine-4-amino Side Chain” (Molecules, 2023).

SMILES strings stand for the structures. ≈ marks a conversion by molar mass, not a printed value.

Data set [1] concerns MRSA ATCC 43300. Description: MIC/MBC by broth dilution (CLSI). Format: cell-based, Staphylococcus aureus. In outline:
(§1)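 CLSI broth dilution used twofold compound series from 64 to 0.0625 µg/mL (stocks in water with 2.5% DMSO and 2.5% Tween-80) and a final inoculum of 5 × 10^5 CFU/mL, in triplicate. For MBC, 25 µL from wells without visible growth was plated on MH agar and cultured 24 h at 37 °C.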
For orientation: Broth dilution looks for growth in wells or tubes with falling amounts of substance.

Another data set concerns S. aureus 144. Description: MIC/MBC by broth dilution (CLSI). Format: cell-based. As to conditions: Staphylococcus aureus; S. aureus 144 (clinical strain). In outline: as §1
For another data set, the system named is S. aureus AD3. Description: MIC/MBC by broth dilution (CLSI). Format: cell-based. The following applies: Staphylococcus aureus; S. aureus AD3 (clinical strain). In outline: as §1
The test system of another data set is S. aureus ATCC 29213. Description: MIC/MBC by broth dilution (CLSI). Format: cell-based. As to conditions: Staphylococcus aureus, ATCC29213. An outline of the steps: as §1
The test system of data set [2] is MRSA ATCC 43300. Kind of data set: Constant concentration time–kill curves. Format: cell-based, Staphylococcus aureus. How it is done: Time–kill kinetic assays were performed, which were used to investigate the in vitro bactericidal kinetic effect of compounds 12c, 19c, 22c and tiamulin.
Time–kill curve assays were established with the MIC value to investigate the antibacterial effect of constant drug concentration on MRSA. […] MRSA ATCC 43300 was incubated in MH broth at 37 °C for 4.5 h and diluted to 1 × 10^6 CFU/mL in MH broth. The saline control group was subjected to the same schedule but 0.9% saline water was added instead of the test compound. All the samples were incubated in an oscillating thermostatic at 37 °C, and then 100 μL of the mixture was extracted to 900 μL of sterile saline (0.9%) at 0, 3, 6, 9, 12 and 24 h, respectively. Samples were serially diluted 10-fold in sterile saline (0.9%) and inoculated onto agar plates. The colonies were counted after incubation at 37 °C for 24 h. Three independent experiments were performed according to our previous work. Time–kill curves were constructed by plotting the log10 CFU per millilitre versus time, and the change in bacterial concentration was determined.

The test system of data set [3] is MRSA ATCC 43300. Description: Post-antibiotic effect (PAE). Format: cell-based, Staphylococcus aureus. How it is done:
PAE has been considered as pharmacodynamic assistance which provides a reference for the rational formulation of dosing regimen. PAE refers to the temporary suppression of bacterial growth following transient antibiotic treatment. PAE assays were conducted for compounds 12c and 22c.
PAE is calculated from growth curves on the difference in time required for the number (1 log10 CFU/mL) of drug-exposed and unexposed microbes. […] The PAE values of compounds 12c and 22c increased with increasing incubation time.
PAE of compounds 12c and 22c on MRSA ATCC 43300 was determined using MH broth according to our previous work. The final concentration of MRSA was 1 × 10^6 CFU/mL by dilution with MH broth. Compounds 12c, 22c and tiamulin were supplemented in the suspension at a final concentration of 2 × MIC and 4 × MIC, respectively. The negative control group contained untreated MRSA bacterial cells. The test tubes were incubated with a 37 °C constant temperature vibration incubator for 1 and 2 h. After incubation, the test compound was removed from the sample by diluting 1000-fold with the preheated MH broth. Next, 100 μL of suspension from each culture was 10-fold diluted in sterile saline and inoculated on MH agar plates at 0, 2, 4, 6 and 8 h after inoculation. The number of colonies was calculated after incubation at 37 °C for 24 h. The experiments were performed in triplicate.

A further data set relates to 16-HBE cells. Kind of data set: Cytotoxicity MTT assay. Format: cell-based, human. The following applies: 1~8 μg/mL, 16 h. Here is the method:
(§2) The presence of compounds can influence cellular basic physiological processes, suppress proliferation and even reduce cell survival, etc. In the community, MRSA generally causes respiratory infection. Therefore, cytotoxicity was evaluated to explore the effect of compounds 12c and 22c on the viability of the respiratory tract cells 16-HBE (human bronchial epithelial cell line). RAW 264.7 (mouse peritoneal macrophage cell line) and Caco-2 (human epithelial colorectal adenocarcinoma cell line) were also used to evaluate the cytotoxicity of compounds 12c and 22c by MTT assay.
(§3) Cytotoxicity of the test compounds was assessed using the conventional MTT method. RAW 264.7 murine macrophage cells, Caco-2 cells and 16-HBE were used in this experiment. The cells were seeded into 96-well plates at a density of 1.0 × 10^5 cells per well. After 4 h at 37 °C, the cells were treated with compounds 12c and 22c at various concentrations and incubated at 37 °C for 16 h. Next, MTT (0.5 mg/mL in PBS, 100 μL/well) was added sequentially to each well in a humidified atmosphere of 95% air and 5% CO2 incubator and the incubation continued for an additional four hours. After incubation, the medium was peeled off and DMSO (150 μL/well) was added to dissolve the cells, and then the incubation was continued for 30 min. At the end of this period, the absorbance was measured at 490 nm by a microplate spectrophotometer (BIO-TEK Instruments, Winooski, VT, USA).
Background: Formazan colour is commonly taken as a measure of viable cells.

Another data set has as its system Caco-2 cells. Kind of data set: Cytotoxicity MTT assay. Format: cell-based, human. As to conditions: 1~8 μg/mL, 16 h. Here is the method: as §2, §3
For data set [4], the system named is MRSA ATCC 43300. Kind of data set: Neutropenic murine thigh infection model. Format: in vivo. The following applies: neutropenic mice, 20 mg/kg, 24 h after dosing, n = 6/group. How it is done: Therefore, the in vivo efficacy of compounds 12c and 22c were assessed using the murine neutropenic thigh infection model. Mice groups treated with saline and tiamulin were chosen as the negative and positive controls.
Model experiments of neutropenic mouse thigh infection were manipulated as described in the literature. Female, six-week-old, specific-pathogen-free mice weighing approximately 23~26 g were used throughout the study. Mice were rendered neutropenic by injection of cyclophosphamide (Mead Johnson Pharmaceuticals, Evansville, IN) on day 4 (150 mg/kg) and day 1 (100 mg/kg) before the experiment. The neutrophil numbers in mice blood should be <0.1 × 10^9/L [34]. In total, 0.1 mL of MH broth of MRSA (10^7 CFU/mL) was inoculated into each thigh of the neutropenic mice. Mice were divided into 4 groups (6 mice per group), including control (sterile saline), compounds 12c, 22c and tiamulin groups. After 3 h post-infection, the corresponding drugs were injected into each mouse’s thigh. Mice were euthanized following intravenous injection for 24 h. Thigh tissue of each mouse was removed, collected, weighed and homogenized in 3 mL of ice sterile saline. Six ten-fold serial dilutions were performed and 25 μL of the bacterial solution from each tube was plated on MH agar plates. The resulting colonies were counted after 24 h incubation at 37 °C. The protocol for this study was reviewed and approved by the Institutional Animal Care and Use Committee of the South China Agricultural University.

In general, MBC refers to the lowest tested concentration that kills the bacteria rather than only halting them. Read a low MBC as greater bactericidal potency. What is called MIC is the smallest concentration in the dilution series that meets the test's criterion for growth inhibition. The melting point is the temperature, or range, at which the solid turns liquid. Regarding `C=C[C@]1(C)C[C@@H](OC(=O)CSc2ccc(Nc3nc(Cl)nc4c3cnn4-c3cccc(C)c3)cc2)[C@]2(C)[C@H](C)CC[C@]3(CCC(=O)[C@H]32)[C@@H](C)[C@@H]1O` [Compound 12c, 22-[4-(6-Chloro-1-(3-methylphenyl)-1H-pyrazolo[3,4-d]pyrimidine-4-yl)amino-Phenylsulfanyl]-22-deoxypleuromutilin], the melting point is 95 to 97 °C. The compound further registered an MBC in the data set with MRSA ATCC 43300 [1] (Staphylococcus aureus, MRSA ATCC 43300, 99.9% of the bacteria killed) of 0.5 µg/mL (≈ 0.686 µM). The MIC with MRSA ATCC 43300 [1] (Staphylococcus aureus, MRSA ATCC 43300, broth dilution, 24 h, 37 °C, read-out: MIC) worked out at 0.25 µg/mL (≈ 0.343 µM). Moreover, the MBC/MIC ratio with MRSA ATCC 43300 [1] (against MRSA) is at most 2. Further, in the data set on S. aureus 144, the MBC stood at 1 µg/mL (≈ 1.37 µM) and it took 0.5 µg/mL (≈ 0.686 µM) to inhibit growth (MIC). In the data set with S. aureus AD3, this compound showed an MBC of 0.25 µg/mL (≈ 0.343 µM) and an MIC of 0.125 µg/mL (≈ 0.172 µM). For the same compound, in the data set with S. aureus ATCC 29213 (S. aureus ATCC 29213), the MBC worked out at 0.5 µg/mL (≈ 0.686 µM). In the data set with S. aureus ATCC 29213 (S. aureus ATCC 29213, broth dilution, 24 h, 37 °C), this compound registered an MIC of 0.25 µg/mL (≈ 0.343 µM). Also, in the data set on MRSA ATCC 43300 [2] (2 × MIC, 24 h incubation), the “MRSA killed in time–kill assay” value stood at 99.99% and the “reduction of MRSA in time–kill assay” value is recorded as −4.51 log10 CFU/mL. Further, in the data set on MRSA ATCC 43300 [2] (4 × MIC), the “reduction of MRSA in time–kill assay” value is given as −5.76 log10 CFU/mL. The “type of bactericidal kinetics” value in the data set with MRSA ATCC 43300 [2] (time–kill curves, 1 to 32 × MIC) was “time-dependent”. This compound also showed a PAE with MRSA ATCC 43300 [3] (2 × MIC, exposure for 1 h) of 0.37 h. The compound further yielded a PAE in the data set with MRSA ATCC 43300 [3] (2 × MIC, exposure for 2 h) of 1.72 h. Moreover, in the data set with MRSA ATCC 43300 [3] (4 × MIC, exposure for 1 h), the PAE came out at 0.43 h. For the same compound, the PAE with MRSA ATCC 43300 [3] (4 × MIC, exposure for 2 h) amounted to 1.73 h. Further, in the data set on 16-HBE cells, the “effect on viability of 16-HBE cells” value is listed as “did not affect the viability”. Further, in the data set with Caco-2 cells, the “effect on viability of Caco-2 cells” value is “did not affect the viability”. Moreover, in the data set with MRSA ATCC 43300 [4], the “reduction of MRSA load in thigh vs growth control” value is recorded as −0.79 log10 CFU/mL.
